From ChEMBL document CHEMBL4321865, “Discovery of Novel Inhibitors of LpxC Displaying Potent in Vitro Activity against Gram-Negative Bacteria” (J Med Chem, 2020)
In brackets after ≈: the same amount, converted by molar mass.

How the values were obtained:
[1] = test system: Escherichia coli; experiment: Antibacterial activity against Escherichia coli infected in cyclophosphamide-induced NMRI/ICR CD-1 mouse model of neutropenic thigh infection assessed as reduction in thigh bacterial load at 50 mg/kg, sc measured after 22 hrs relative to control; type: functional
[2] = test system: Escherichia coli; experiment: Antibacterial activity against Escherichia coli infected in cyclophosphamide-induced NMRI/ICR CD-1 mouse model of neutropenic thigh infection assessed as reduction in thigh bacterial load at 150 mg/kg, sc measured after 22 hrs relative to control; type: functional
[3] = Apparent clearance in NMRI/ICR CD-1 mouse at 50 mg/kg, sc by LC-MS/MS analysis; type: ADME, organism-based; conditions: in vivo
[4] = test system: Mus musculus; experiment: Apparent unbound clearance in NMRI/ICR CD-1 mouse at 50 mg/kg, sc by LC-MS/MS analysis; type: ADME, organism-based; conditions: in vivo
[5] = Cmax in NMRI/ICR CD-1 mouse at 50 mg/kg, sc by LC-MS/MS analysis; type: ADME, organism-based; parameters: dose 50 mg/kg, route subcutaneous; conditions: in vivo
[6] = Tmax in NMRI/ICR CD-1 mouse at 50 mg/kg, sc by LC-MS/MS analysis; type: ADME, organism-based; conditions: in vivo
[7] = test system: T1, UDP-3-O-acyl-N-acetylglucosamine deacetylase (Escherichia coli K-12), P0A725 [C125S]
T1 sequence (whole entry): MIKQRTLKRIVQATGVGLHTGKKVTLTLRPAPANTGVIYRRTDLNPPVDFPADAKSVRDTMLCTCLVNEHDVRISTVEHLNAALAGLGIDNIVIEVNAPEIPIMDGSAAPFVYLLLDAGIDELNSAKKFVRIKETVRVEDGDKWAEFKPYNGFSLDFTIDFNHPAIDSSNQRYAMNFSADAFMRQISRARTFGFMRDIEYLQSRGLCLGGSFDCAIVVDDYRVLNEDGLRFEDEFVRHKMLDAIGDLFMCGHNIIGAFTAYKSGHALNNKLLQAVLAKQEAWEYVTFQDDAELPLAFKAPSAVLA

[8] = test system: T2, UDP-3-O-acyl-N-acetylglucosamine deacetylase (Pseudomonas aeruginosa (strain ATCC 15692 / PAO1 / 1C / PRS 101 / LMG12228)), P47205 [C40S]
T2 sequence (whole entry): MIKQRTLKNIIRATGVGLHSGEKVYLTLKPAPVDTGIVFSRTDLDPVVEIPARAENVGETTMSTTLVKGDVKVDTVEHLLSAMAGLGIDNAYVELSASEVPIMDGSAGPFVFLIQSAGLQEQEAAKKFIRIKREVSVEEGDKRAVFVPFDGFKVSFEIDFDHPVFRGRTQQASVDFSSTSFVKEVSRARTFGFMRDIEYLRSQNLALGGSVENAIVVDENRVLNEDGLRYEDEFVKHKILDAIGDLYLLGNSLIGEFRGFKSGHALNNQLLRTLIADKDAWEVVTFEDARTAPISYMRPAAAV

[9] = mouse, plasma, 1 µM
Description: Protein binding in mouse plasma assessed as fraction unbound at 1 uM by equilibrium dialysis method

[10] = mouse, in vivo, sc, 50 mg/kg
[11] = in vivo; conditions: NMRI/ICR CD-1, mouse, sc, 50 mg/kg
[12] = physchem; conditions: n-octanol/phosphate buffered saline, pH 7.4
Description: n-Octanol/phosphate buffered saline partition coefficient, log D of the compound at pH 7.4 by LC-UV method

[13] = physchem; conditions: DMSO, pH 7
Description: Solubility of the compound in DMSO at pH 7 incubated for 24 hrs by LC-UV method

[14] = physchem; conditions: DMSO, pH 9
Description: Solubility of the compound in DMSO at pH 9 incubated for 24 hrs by LC-UV method

[15] = physchem; conditions: DMSO, pH 4
Description: Solubility of the compound in DMSO at pH 4 incubated for 24 hrs by LC-UV method

[16] = test system: Escherichia coli; experiment: microbe, parasite or virus in culture; conditions: ATCC 25922
Description: Antibacterial activity against wild-type Escherichia coli ATCC 25922 by broth microdilution method

[17] = test system: Klebsiella pneumoniae; experiment: microbe, parasite or virus in culture; conditions: T 6474
Description: Antibacterial activity against multi-drug resistant Klebsiella pneumoniae T 6474 by broth microdilution method

[18] = test system: Pseudomonas aeruginosa; experiment: microbe, parasite or virus in culture; conditions: ATCC 27853
Description: Antimicrobial activity against Pseudomonas aeruginosa ATCC 27853 by broth microdilution method

[19] = test system: Pseudomonas aeruginosa; experiment: microbe, parasite or virus in culture; conditions: PAO1
Description: Antimicrobial activity against wild-type Pseudomonas aeruginosa PAO1 by broth microdilution method

[20] = test system: Pseudomonas aeruginosa; experiment: Antimicrobial activity against Pseudomonas aeruginosa PA2616 harboring delta mexAB-OprM mutant by broth microdilution method; type: functional

With `C[C@@](CCN1Cc2cc(C#Cc3ccc([C@H](O)CO)cc3)cn2C1=O)(C(=O)NO)S(C)(=O)=O` the “fold change (FC)” value [1] was 2.4, the “fold change (FC)” value [2] was 0.4 and the CL/F [3] was 10.8 mL/min/kg. For the same compound, the CLu/F [4] was 680 mL/min/kg, the Cmax [5] was 41300 ng/mL and the Tmax [6] was 30 min. For the same compound, the ΔTm [7] was 11.1 °C, the ΔTm [8] was 12.7 °C and the Fu [9] was 0.016%. It also gave a fAUC [10] of 1230 ng·h/mL, an AUC(0-t) at 24 h [11] of 76500 ng·h/mL and a logD [12] of 0.5. The solubility at 24 h [13] was 605 µg/mL (≈ 1270 µM), the solubility at 24 h [14] was 660 µg/mL (≈ 1390 µM) and the solubility at 24 h [15] was 167 µg/mL (≈ 351 µM). For the same compound, the MIC [16] was 0.5 µg/mL (≈ 1.05 µM), the MIC [17] was 1 µg/mL (≈ 2.1 µM) and the MIC [18] was 1 µg/mL (≈ 2.1 µM). For the same compound, the MIC [19] was 1 µg/mL (≈ 2.1 µM).
`C[C@@](CCN1Cc2cc(C#Cc3ccc([C@H]4C[C@@H]4CO)cc3)cn2C1=O)(C(=O)NO)S(C)(=O)=O` gave a ΔTm [7] of 12.1 °C, a ΔTm [8] of 13.4 °C and a logD [12] of 1.4. It also gave a solubility at 24 h [13] of 24 µg/mL (≈ 49.4 µM), a solubility at 24 h [14] of 170 µg/mL (≈ 350 µM) and a solubility at 24 h [15] of 11 µg/mL (≈ 22.7 µM). For the same compound, the MIC [16] was ≤ 0.06 µg/mL, the MIC [17] was ≤ 0.06 µg/mL and the MIC [18] was 0.5 µg/mL (≈ 1.03 µM). It also gave an MIC [19] of 1 µg/mL (≈ 2.06 µM).
Work on `C[C@@](CCN1Cc2cc(C#Cc3ccc(CN4CCOCC4)cc3)sc2C1=O)(C(=O)NO)S(C)(=O)=O` yielded a ΔTm [7] of 13 °C, a ΔTm [8] of 15.5 °C and a logD [12] of 1.8. For the same compound, the solubility at 24 h [13] was 155 µg/mL (≈ 292 µM), the solubility at 24 h [14] was 571 µg/mL (≈ 1070 µM) and the solubility at 24 h [15] was > 900 µg/mL. The MIC [16] was ≤ 0.06 µg/mL, the MIC [17] was 0.12 µg/mL (≈ 0.226 µM) and the MIC [18] was 1 µg/mL (≈ 1.88 µM). It also gave an MIC [19] of 1 µg/mL (≈ 1.88 µM).
For `C[C@@](CCN1Cc2cc(C#Cc3ccc(CN4CCOCC4)cc3)ccc2C1=O)(C(=O)NO)S(C)(=O)=O`, the ΔTm [7] was 11 °C, the ΔTm [8] was 13.8 °C and the logD [12] was 1.8. For the same compound, the solubility at 24 h [13] was 148 µg/mL (≈ 282 µM), the solubility at 24 h [14] was > 890 µg/mL and the solubility at 24 h [15] was > 890 µg/mL. The MIC [16] was 0.12 µg/mL (≈ 0.228 µM), the MIC [17] was 0.5 µg/mL (≈ 0.951 µM) and the MIC [18] was 2 µg/mL (≈ 3.8 µM). The MIC [19] was 2 µg/mL (≈ 3.8 µM).
For `COc1ccc(-c2cnc3c(c2)CN(CCC(C)(C(=O)NO)S(C)(=O)=O)C3=O)c(F)c1` (racemic), the MIC [20] was 16 µg/mL (≈ 35.4 µM), the ΔTm [7] was 5.6 °C and the ΔTm [8] was 7 °C. For the same compound, the MIC [16] was 32 µg/mL (≈ 70.9 µM), the MIC [17] was > 32 µg/mL and the MIC [18] was 32 µg/mL (≈ 70.9 µM). For the same compound, the MIC [19] was > 32 µg/mL.
In the case of `C[C@@](CCN1Cc2cc(C#CC#C[C@H]3C[C@@H]3CO)cn2C1=O)(C(=O)NO)S(C)(=O)=O`, the “fold change (FC)” value [1] was 1.8, the “fold change (FC)” value [2] was 0.8 and the CL/F [3] was 20.2 mL/min/kg. It also gave a CLu/F [4] of 2300 mL/min/kg, a Cmax [5] of 22600 ng/mL and a Tmax [6] of 30 min. The ΔTm [7] was 11.2 °C, the ΔTm [8] was 13.2 °C and the Fu [9] was 0.009%. The fAUC [10] was 370 ng·h/mL, the AUC(0-t) at 24 h [11] was 41000 ng·h/mL and the solubility at 24 h [15] was 600 µg/mL (≈ 1380 µM). It also gave an MIC [16] of 0.12 µg/mL (≈ 0.277 µM), an MIC [17] of 0.25 µg/mL (≈ 0.577 µM) and an MIC [18] of 0.25 µg/mL (≈ 0.577 µM). The MIC [19] was 0.5 µg/mL (≈ 1.15 µM).
`COc1ccc(-c2cn(CC[C@](C)(C(=O)NO)S(C)(=O)=O)c(=O)o2)c(F)c1` gave an MIC [20] of 1 µg/mL (≈ 2.49 µM), a ΔTm [7] of 5.2 °C and a ΔTm [8] of 9.9 °C. The MIC [16] was 8 µg/mL (≈ 19.9 µM), the MIC [17] was 16 µg/mL (≈ 39.8 µM) and the MIC [18] was 8 µg/mL (≈ 19.9 µM). For the same compound, the MIC [19] was 8 µg/mL (≈ 19.9 µM).
With `COc1ccc(-c2cn3c(n2)CN(CC[C@](C)(C(=O)NO)S(C)(=O)=O)C3=O)c(F)c1` the MIC [20] was 8 µg/mL (≈ 18.2 µM), the ΔTm [7] was 6 °C and the ΔTm [8] was 6.9 °C. For the same compound, the MIC [16] was 4 µg/mL (≈ 9.08 µM), the MIC [17] was 16 µg/mL (≈ 36.3 µM) and the MIC [18] was > 32 µg/mL. The MIC [19] was > 32 µg/mL.
